Reference: US20120328536A1, “Taste Improving Substances” (QUEST INTERNATIONAL SERVICES B.V., priority 2006, published 2012)

Columns and labels:
[1] = Tasting of menthol fondant by a professional panel; settings: 50 ppm in fondant with 2500 ppm menthol
Protocol: Two samples of fondant were prepared by mixing 65 Fondacreme (ex Belgosuc NV Belgium) with 35% sugar syrup (67° Brix). 2500 Ppm menthol was added as a 50% solution in propylene glycol. To a first sample (sample A), 50 ppm of N-(2-hydroxyethyl) 5-hydroxyhexanoyl amide (as prepared in example 1) was added. The second sample was the reference sample. The Samples were tasted by a professional panel.

[2] = Tasting of NaCl/MSG/pepper oleoresin solution by a professional panel; settings: 50 ppm in 0.6% NaCl, 0.03% MSG, 4 ppm pepper oleoresin
Protocol: Two solutions of 0.6% NaCl and 0.03% MSG and 4 ppm pepper oleoresin (ex Warner Jenkinson, St Louis, USA) were prepared. To one sample (sample A), 50 ppm of N-(2-hydroxyethyl) 5-hydroxyhexanoyl amide (as prepared in example 1) was added. The other sample was used as the reference. Both samples were tasted by a professional panel.

[3] = Tasting of 3% alcohol in water by a professional panel; settings: 50 ppm in 3% alcohol in water
Protocol: Two solutions of 3% alcohol in water were prepared. To one sample (sample A), 50 ppm of N-(2-hydroxyethyl) 5-hydroxyhexanoyl amide (as prepared in example 1) was added. The other sample was used as the reference sample. Both samples were tasted by a professional panel.

[4] = Tasting of Odol mouthwater by a professional panel; settings: 50 ppm in Odol mouthwater
Protocol: Commercially available Odol mouthwater (GlaxoSmithKline) was obtained from a local pharmacy and 4 solutions were prepared.
To a first sample (sample A), 50 ppm of N-(2-hydroxyethyl) 5-hydroxyhexanoyl amide (as prepared in example 1) was added. Samples A was tasted by a professional panel and compared with the mouthwater without added N-(2-hydroxyethyl) 5-hydroxyhexanoyl amide.

[5] = Tasting of toothpaste by a professional panel; settings: 50 ppm in commercial toothpaste
Protocol: Commercially available toothpaste was obtained from a local pharmacy and 4 samples of paste were prepared.
To a first sample (sample A), 50 ppm of N-(2-hydroxyethyl) 5-hydroxyhexanoyl amide (as prepared in example 1) was added and homogenized. Samples A was tasted by a professional panel and compared with the toothpaste without added N-(2-hydroxyethyl) 5-hydroxyhexanoyl amide.

With “N-(2-hydroxyethyl) 5-hydroxyhexanoyl amide” the “cooling compared with the reference sample” value [1] was “more intense cooling than the reference sample”, the “onset and location of the cooling effect” value [1] was “its effect is immediate and through the whole oral cavity” and the “after-taste compared to the reference sample” value [2] was “more a hot, tingling after-taste”. The “initial hotness compared to the reference sample” value [2] was “initial hotness was increased”, the “alcohol impression compared to the reference sample” value [3] was “alcohol-boosting effect” and the “ethanol water mixture that the sample tasted like” value [3] was 5-6%. The “cooling in the oral cavity” value [4] was “more aggressive cooling in the whole oral cavity”, the “initial cooling and mouth-coating” value [4] was “more initial cooling and more mouth-coating” and the “overall impact compared with mouthwater without the amide” value [4] was “stronger overall impact”. The “cooling in the oral cavity” value [5] was “more aggressive cooling in the whole oral cavity”, the “initial cooling and mouth-coating” value [5] was “more initial cooling and more mouth-coating” and the “overall impact compared with the reference sample” value [5] was “stronger overall impact”.
